Measurements taken from patent publication US7772241B2, “Variolin derivatives and their use as antitumor agents” (Pharma Mar S.A., priority 2001, dated 2010).
Where two headings read alike, the source gives them in different places.

Columns and labels:
A-549 = assay: Inhibition of cells growth by colorimetric (SRB) assay, A-549
Summary of the method: (§1)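 Human tumour cells seeded at 5×10^3/well in RPMI 1640 10% FBS, attached 18 h, then exposed 48 h to samples at 10 to 10^−8 μg/ml in DMSO/EtOH/PBS (0.5:0.5:99). Growth read by SRB staining after TCA fixation, OD 490 nm, triplicate wells; GI, TGI and LC derived.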

HT-29 = assay: Inhibition of cells growth by colorimetric (SRB) assay, HT-29
Summary of the method: as §1

[1] = Inhibition of cells growth by colorimetric (SRB) assay, HMEC1; conditions: human, HMEC1 cells, 48 hours exposure
HMEC1 = assay: as above; conditions: for GI50: Homo sapiens, HMEC-1, 48 h
K-562 = assay: Inhibition of cells growth by colorimetric (SRB) assay, K-562; conditions: for GI50 / CC50: Homo sapiens, K562, 48 h; for GI50: read-out: GI50 K-562, SRB assay, 48 hours exposure; for CC50: read-out: LC50 K-562, SRB assay, 48 hours exposure; for TGI K-562: SRB assay, 48 hours exposure
Summary of the method: as §1

SK-MEL-28 = assay: Inhibition of cells growth by colorimetric (SRB) assay, SK-MEL-28; conditions: for GI50: read-out: GI50 MEL-28, SRB assay, 48 hours exposure
Summary of the method: as §1

LoVo = assay: Inhibition of cells growth by colorimetric (SRB) assay, LoVo; conditions: for GI50: read-out: GI50 LOVO, SRB assay, 48 hours exposure
Summary of the method: as §1

LoVo-Dox = assay: Inhibition of cells growth by colorimetric (SRB) assay, LoVo-Dox; conditions: for GI50 / CC50: Homo sapiens, 48 h; for GI50: read-out: GI50 LOVO-DOX, SRB assay, 48 hours exposure; for CC50: read-out: LC50 LOVO-DOX, SRB assay, 48 hours exposure; for TGI LOVO-DOX: SRB assay, 48 hours exposure
Summary of the method: as §1

DU-145 = assay: Inhibition of cells growth by colorimetric (SRB) assay, DU-145; conditions: for GI50: read-out: GI50 DU-145, SRB assay, 48 hours exposure
Summary of the method: as §1

LNCaP = assay: Inhibition of cells growth by colorimetric (SRB) assay, LNCaP; conditions: for GI50 / CC50: Homo sapiens, LNCaP, 48 h; for GI50: read-out: GI50 LN-caP, SRB assay, 48 hours exposure; for CC50: read-out: LC50 LN-caP, SRB assay, 48 hours exposure; for TGI LN-caP: SRB assay, 48 hours exposure
Summary of the method: as §1

SK-BR-3 = assay: Inhibition of cells growth by colorimetric (SRB) assay, SK-BR-3
Summary of the method: as §1

IGROV-1 = assay: Inhibition of cells growth by colorimetric (SRB) assay, IGROV-1; conditions: for GI50 / CC50: Homo sapiens, IGROV-1, 48 h; for GI50: read-out: GI50 IGROV, SRB assay, 48 hours exposure; for CC50: read-out: LC50 IGROV, SRB assay, 48 hours exposure; for TGI IGROV: SRB assay, 48 hours exposure
Summary of the method: as §1

IGROV-ET = assay: Inhibition of cells growth by colorimetric (SRB) assay, IGROV-ET; conditions: for GI50 / CC50: Homo sapiens, 48 h; for GI50: read-out: GI50 IGROV-ET, SRB assay, 48 hours exposure; for CC50: read-out: LC50 IGROV-ET, SRB assay, 48 hours exposure; for TGI IGROV-ET: SRB assay, 48 hours exposure
Summary of the method: as §1

PANC-1 = assay: Inhibition of cells growth by colorimetric (SRB) assay, PANC-1; conditions: for GI50 / CC50: Homo sapiens, PANC-1, 48 h; for GI50: read-out: GI50 PANC-1, SRB assay, 48 hours exposure; for CC50: read-out: LC50 PANC-1, SRB assay, 48 hours exposure; for TGI PANC-1: SRB assay, 48 hours exposure
Summary of the method: as §1

[2] = Homo sapiens, A549, 48 h, read-out: GI50 A-549, SRB assay, 48 hours exposure
[3] = Homo sapiens, A549, 48 h, read-out: LC50 A-549, SRB assay, 48 hours exposure
[4] = Homo sapiens, HT-29, 48 h, read-out: GI50 HT-29, SRB assay, 48 hours exposure
[5] = Homo sapiens, HT-29, 48 h, read-out: LC50 HT-29, SRB assay, 48 hours exposure
[6] = read-out: GI50 H-MEC-1, SRB assay, 48 hours exposure
[7] = SRB assay, 48 hours exposure, in M (unit assumed)

Structure (SMILES)	GI50 (A-549; [2])	GI50 (HT-29; [4])	GI50 (K-562)	GI50 (SK-MEL-28; Homo sapiens, SK-MEL-28, 48 h)	GI50 (LoVo; Homo sapiens, LoVo, 48 h)	GI50 (LoVo-Dox)	GI50 (DU-145; Homo sapiens, DU-145, 48 h)	CC50 (A-549; [3])	TGI A-549 (A-549; SRB assay, 48 hours exposure)	CC50 (HT-29; [5])	TGI HT-29 (HT-29; SRB assay, 48 hours exposure)	CC50 at 48 h ([1]; LC50 H-MEC-1, SRB assay)	GI50 (HMEC1; [6])	TGI H-MEC-1 (HMEC1; [7])	CC50 (K-562)	TGI K-562 (K-562)	TGI MEL-28 (SK-MEL-28; SRB assay, 48 hours exposure)	TGI LOVO (LoVo; SRB assay, 48 hours exposure)	CC50 (LoVo-Dox)	TGI LOVO-DOX (LoVo-Dox)	also measured
CSc1nccc(-c2c3cc(Cl)cnc3n3c(SC)nccc23)n1 [Compound 47]	17200 nM	20400 nM	–	–	–	–	–	26700 nM	2.67E−05	26700 nM	2.67E−05	26700 nM	26700 nM	2.67E−05	–	–	–	–	–	–	–
COc1ccnc2c1c(-c1ccnc(N)n1)c1ccnc(N)n12 [Compound 114]	–	–	1700 nM	605 nM	540 nM	827 nM	732 nM	–	1.72E−06	32500 nM	3.25E−06	2650 nM	670 nM	1.33E−06	16200 nM	2.98E−06	1.20E−06	1.98E−06	32500 nM	2.41E−06	GI50 (A-549; read-out: GI50 A-549, SRB assay, 48 hours exposure): 553 nM; CC50 (A-549; read-out: LC50 A-549, SRB assay, 48 hours exposure): 8230 nM; CC50 (SK-MEL-28; read-out: LC50 MEL-28, SRB assay, 48 hours exposure): 2400 nM; GI50 (HT-29; read-out: GI50 HT-29, SRB assay, 48 hours exposure): 1040 nM; CC50 (LoVo; read-out: LC50 LOVO, SRB assay, 48 hours exposure): 10300 nM; TGI DU-145 (DU-145; SRB assay, 48 hours exposure): 1.75E−06; CC50 (DU-145; read-out: LC50 DU-145, SRB assay, 48 hours exposure): 6220 nM; GI50 (LNCaP): 625 nM; CC50 (LNCaP): 2350 nM; TGI LN-caP (LNCaP): 1.21E−06; GI50 (IGROV-1): 843 nM; CC50 (IGROV-1): 15800 nM; TGI IGROV (IGROV-1): 1.81E−06; GI50 (IGROV-ET): 1510 nM; CC50 (IGROV-ET): 25400 nM; TGI IGROV-ET (IGROV-ET): 3.29E−06; GI50 (PANC-1): 1350 nM; CC50 (PANC-1): 32500 nM; TGI PANC-1 (PANC-1): 6.18E−06
Nc1nccc2c(-c3ccncn3)c3cccnc3n12 [Compound 70]	–	–	–	–	–	–	–	–	–	–	–	–	–	–	–	–	–	–	–	–	GI50 (A-549; Homo sapiens, A549, 48 h, read-out: A-549 GI50, SRB assay, 48 hours exposure): 182 nM; CC50 (A-549; Homo sapiens, A549, 48 h, read-out: A-549 LC50, SRB assay, 48 hours exposure): 3350 nM; A-549 TGI (A-549; SRB assay, 48 hours exposure): 5.60E−07; GI50 (HT-29; Homo sapiens, HT-29, 48 h, read-out: HT-29 GI50, SRB assay, 48 hours exposure): 38.1 nM; CC50 (HT-29; Homo sapiens, HT-29, 48 h, read-out: HT-29 LC50, SRB assay, 48 hours exposure): 38100 nM; HT-29 TGI (HT-29; SRB assay, 48 hours exposure): 3.81E−06; CC50 at 48 h ([1]; H-MEC-1 LC50, SRB assay): 4000 nM; GI50 (HMEC1; read-out: H-MEC-1 GI50, SRB assay, 48 hours exposure): 119 nM; H-MEC-1 TGI (HMEC1; [7]): 3.93E−07

Second part, led by results:

GI50 (A-549; [2])	GI50 (HT-29; [4])	GI50 (K-562)	GI50 (SK-MEL-28; Homo sapiens, SK-MEL-28, 48 h)	GI50 (LoVo; Homo sapiens, LoVo, 48 h)	GI50 (LoVo-Dox)	GI50 (DU-145; Homo sapiens, DU-145, 48 h)	Structure (SMILES)	CC50 (A-549; [3])	TGI A-549 (A-549; SRB assay, 48 hours exposure)	CC50 (HT-29; [5])	TGI HT-29 (HT-29; SRB assay, 48 hours exposure)	CC50 at 48 h ([1]; LC50 H-MEC-1, SRB assay)	GI50 (HMEC1; [6])	TGI H-MEC-1 (HMEC1; [7])	CC50 (K-562)	TGI K-562 (K-562)	TGI MEL-28 (SK-MEL-28; SRB assay, 48 hours exposure)	TGI LOVO (LoVo; SRB assay, 48 hours exposure)	CC50 (LoVo-Dox)	TGI LOVO-DOX (LoVo-Dox)	also measured
748 nM	2150 nM	4470 nM	1120 nM	894 nM	1390 nM	759 nM	Nc1nccc(-c2c3c(F)ccnc3n3c(N)nccc23)n1 [Compound 115]	≥ 33900 nM	1.97E−06	≥ 33900 nM	1.31E−05	5960 nM	599 nM	1.56E−06	28900 nM	1.13E−05	4.13E−06	1.91E−06	≥ 33900 nM	5.76E−06	CC50 (SK-MEL-28; Homo sapiens, SK-MEL-28, 48 h, read-out: LC50 MEL-28, SRB assay, 48 hours exposure): 12100 nM; CC50 (LoVo; Homo sapiens, LoVo, 48 h, read-out: LC50 LOVO, SRB assay, 48 hours exposure): ≥ 33900 nM; CC50 (DU-145; Homo sapiens, DU-145, 48 h, read-out: LC50 DU-145, SRB assay, 48 hours exposure): 10700 nM; TGI DU-145 (DU-145; SRB assay, 48 hours exposure): 1.79E−06; GI50 (LNCaP): 721 nM; CC50 (LNCaP): 2340 nM; TGI LN-caP (LNCaP): 1.30E−06; GI50 (SK-BR-3; Homo sapiens, SK-BR-3, 48 h, read-out: GI50 SK-BR-3, SRB assay, 48 hours exposure): 752 nM; CC50 (SK-BR-3; Homo sapiens, SK-BR-3, 48 h, read-out: LC50 SK-BR-3, SRB assay, 48 hours exposure): 6230 nM; TGI SK-BR-3 (SK-BR-3; SRB assay, 48 hours exposure): 1.69E−06; GI50 (IGROV-1): 1230 nM; CC50 (IGROV-1): ≥ 33900 nM; TGI IGROV (IGROV-1): 5.22E−06; GI50 (IGROV-ET): 1470 nM; CC50 (IGROV-ET): ≥ 33900 nM; TGI IGROV-ET (IGROV-ET): 6.84E−06; GI50 (PANC-1): 2050 nM; CC50 (PANC-1): ≥ 33900 nM; TGI PANC-1 (PANC-1): 9.35E−06
1760 nM	2040 nM	–	–	–	–	–	CSc1nccc(-c2c3c(N)ccnc3n3c(N)nccc23)n1 [Compound 92]	24400 nM	6.03E−06	30900 nM	3.09E−05	30900 nM	782 nM	3.09E−06	–	–	–	–	–	–	–
